Experimental data reported in patent US20040005354A1, “Oral trimethobenzamide formulations and methods” (King Pharmaceuticals, Inc., priority 2002, published 2004).

Assay: Safety assessment (adverse events, laboratory tests) in the four-way crossover study
Format: in vivo, human (healthy subjects)
Description: Seventy-four healthy, non-smoking, male & female subjects, 18-65 years old were enrolled in this study. A total of 68 subjects completed all the requirements of the protocol. There were no enrollment violations. However, nine of the 74 subjects began the study during the third period of the initial group of subjects. All 74 subjects who received at least one dose of study medication were included in the safety analysis.
This study was a single center, randomized, open-label, 4-way crossover study in healthy subjects. Dosing was administered in the fasted state. Seventy-four (74) subjects were randomized into the study. All seventy-four subjects received one or more doses of study medication and are therefore included in the safety assessment. On Treatment Day 1 of the first treatment period, each subject was randomized to receive one of four possible study treatment sequences. The treatment groups consisted of the four treatments administered sequentially as DCAB, ADBC, BACD or CBDA. These treatments are shown below.
A signed informed consent was obtained from each subject. For screening purposes, the following procedures were required of each subject and were performed by the clinical site within 30 days prior to the study: a complete physical examination including a medical history, vital signs, clinical laboratory safety tests on blood and urine, medications taken prior to and during the study, and a serum pregnancy test for female subjects.
During the treatments, temperature, blood pressure, heart rate and respiratory rate were monitored as a safety measure. A physical examination and clinical laboratory tests were repeated at the completion of the study. Subjects were observed and questioned throughout the study for the occurrence of any adverse events.
A total of 28 adverse events (AEs) were experienced; 27 were treatment emergent. Twenty-one (21) of these were assessed as related to study treatment. All related AEs are known to occur with trimethobenzamide and were primarily mild or moderate in intensity. One (1) severe AE occurred in one subject which was judged as unrelated to study treatment-severe pharyngitis. […] A summary of treatment emergent adverse events (AEs) is presented in Table 6 using the preferred medical term.

[1] = 74 subjects, all four treatment periods

N-[2-(dimethylamino)-ethoxy]-3,4,5-trimethoxybenzamide hydrochloride [trimethobenzamide hydrochloride]
subjects with decreased red blood cell count at the end of treatment (5 percent prior to treatment): 11% | subjects with low hematocrit at the end of treatment (8 percent prior to treatment): 34% | AEs assessed as related to study treatment [1]: 21 | serious AEs [1]: no serious AEs | total adverse events (AEs) experienced [1]: 28 | treatment emergent AEs [1]: 27 | dizziness, number (all four treatment periods): 3 | neurologic complaints, number (all four treatment periods): 15 | paresthesias, number (all four treatment periods): 3 | hematocrit mean change (end of treatment vs prior): 2.3% | hemoglobin mean change (end of treatment vs prior): 0.6 g/dL | red blood cell count mean change (end of treatment vs prior): 2e+11 L⁻¹ | overall safety and tolerability (in vivo): safe and well tolerated | subjects with normal hemoglobin prior to treatment who had low hemoglobin at the end of treatment (in vivo): 13% | headaches, number (seen in a total of 7 subjects): 8 | ABDOMINAL PAIN, subjects % (sequence A D B C (N = 20)): 5.0% | ABDOMINAL PAIN, subjects n (sequence A D B C (N = 20)): 1 | CONJUNCTIVITIS, subjects % (sequence A D B C (N = 20)): 5.0% | CONJUNCTIVITIS, subjects n (sequence A D B C (N = 20)): 1 | DIARRHEA, subjects % (sequence A D B C (N = 20)): 0.0% | DIARRHEA, subjects n (sequence A D B C (N = 20)): 0 | DIZZINESS, subjects % (sequence A D B C (N = 20)): 15.0% | DIZZINESS, subjects n (sequence A D B C (N = 20)): 3 | EDEMA, PALMAR, subjects % (sequence A D B C (N = 20)): 5.0% | EDEMA, PALMAR, subjects n (sequence A D B C (N = 20)): 1 | ERYTHEMA, EXTERNAL NOSE, subjects % (sequence A D B C (N = 20)): 0.0% | ERYTHEMA, EXTERNAL NOSE, subjects n (sequence A D B C (N = 20)): 0 | ERYTHEMA, PALMAR, subjects % (sequence A D B C (N = 20)): 5.0% | ERYTHEMA, PALMAR, subjects n (sequence A D B C (N = 20)): 1 | HEADACHE, subjects % (sequence A D B C (N = 20)): 5.0% | HEADACHE, subjects n (sequence A D B C (N = 20)): 1 | HYPOTONIA, subjects % (sequence A D B C (N = 20)): 0.0% | HYPOTONIA, subjects n (sequence A D B C (N = 20)): 0 | INJECTION SITE REACTION, subjects % (sequence A D B C (N = 20)): 0.0% | INJECTION SITE REACTION, subjects n (sequence A D B C (N = 20)): 0 | LARYNGISMUS, subjects % (sequence A D B C (N = 20)): 0.0% | LARYNGISMUS, subjects n (sequence A D B C (N = 20)): 0 | LEG CRAMPS, subjects % (sequence A D B C (N = 20)): 0.0% | LEG CRAMPS, subjects n (sequence A D B C (N = 20)): 0 | NAUSEA AND VOMITING, subjects % (sequence A D B C (N = 20)): 5.0% | NAUSEA AND VOMITING, subjects n (sequence A D B C (N = 20)): 1 | NAUSEA, subjects % (sequence A D B C (N = 20)): 5.0% | NAUSEA, subjects n (sequence A D B C (N = 20)): 1 | Number of Subject With At Least one AE, % (sequence A D B C (N = 20)): 25.0% | Number of Subject With No AE, % (sequence A D B C (N = 20)): 75.0% | PARESTHESIA, subjects % (sequence A D B C (N = 20)): 0.0% | PARESTHESIA, subjects n (sequence A D B C (N = 20)): 0 | PHARYNGITIS, subjects % (sequence A D B C (N = 20)): 0.0% | PHARYNGITIS, subjects n (sequence A D B C (N = 20)): 0 | RASH, subjects % (sequence A D B C (N = 20)): 0.0% | RASH, subjects n (sequence A D B C (N = 20)): 0 | ABDOMINAL PAIN, subjects % (sequence B A C D (N = 18)): 0.0% | ABDOMINAL PAIN, subjects n (sequence B A C D (N = 18)): 0 | CONJUNCTIVITIS, subjects % (sequence B A C D (N = 18)): 0.0% | CONJUNCTIVITIS, subjects n (sequence B A C D (N = 18)): 0 | DIARRHEA, subjects % (sequence B A C D (N = 18)): 0.0% | DIARRHEA, subjects n (sequence B A C D (N = 18)): 0 | DIZZINESS, subjects % (sequence B A C D (N = 18)): 0.0% | DIZZINESS, subjects n (sequence B A C D (N = 18)): 0 | EDEMA, PALMAR, subjects % (sequence B A C D (N = 18)): 0.0% | EDEMA, PALMAR, subjects n (sequence B A C D (N = 18)): 0 | ERYTHEMA, EXTERNAL NOSE, subjects % (sequence B A C D (N = 18)): 0.0% | ERYTHEMA, EXTERNAL NOSE, subjects n (sequence B A C D (N = 18)): 0 | ERYTHEMA, PALMAR, subjects % (sequence B A C D (N = 18)): 0.0% | ERYTHEMA, PALMAR, subjects n (sequence B A C D (N = 18)): 0 | HEADACHE, subjects % (sequence B A C D (N = 18)): 0.0% | HEADACHE, subjects n (sequence B A C D (N = 18)): 0 | HYPOTONIA, subjects % (sequence B A C D (N = 18)): 0.0% | HYPOTONIA, subjects n (sequence B A C D (N = 18)): 0 | INJECTION SITE REACTION, subjects % (sequence B A C D (N = 18)): 5.6% | INJECTION SITE REACTION, subjects n (sequence B A C D (N = 18)): 1 | LARYNGISMUS, subjects % (sequence B A C D (N = 18)): 5.6% | LARYNGISMUS, subjects n (sequence B A C D (N = 18)): 1 | LEG CRAMPS, subjects % (sequence B A C D (N = 18)): 0.0% | LEG CRAMPS, subjects n (sequence B A C D (N = 18)): 0 | NAUSEA AND VOMITING, subjects % (sequence B A C D (N = 18)): 0.0% | NAUSEA AND VOMITING, subjects n (sequence B A C D (N = 18)): 0 | NAUSEA, subjects % (sequence B A C D (N = 18)): 0.0% | NAUSEA, subjects n (sequence B A C D (N = 18)): 0 | Number of Subject With At Least one AE, % (sequence B A C D (N = 18)): 22.2% | Number of Subject With No AE, % (sequence B A C D (N = 18)): 77.8% | PARESTHESIA, subjects % (sequence B A C D (N = 18)): 11.1% | PARESTHESIA, subjects n (sequence B A C D (N = 18)): 2
